Experimental data published in US12612380B2, “Non-lysosomal glucosylceramidase inhibitors and uses thereof” (ALECTOS THERAPEUTICS INC., priority 2019, dated 2026).
Read-outs that look alike come from different tables or passages of the source.

How the values were obtained:
GBA2 [1] = target: T1, GBA2 (Homo sapiens, UniProt Q9HCG7); assay: Determination of IC50 values for inhibition of GBA2 in cell lysate; type: biochemical; design: host or cells: HEK293T (lentiviral transduction, puromycin selection); used as cellular homogenate
T1 sequence (Q9HCG7 1-927): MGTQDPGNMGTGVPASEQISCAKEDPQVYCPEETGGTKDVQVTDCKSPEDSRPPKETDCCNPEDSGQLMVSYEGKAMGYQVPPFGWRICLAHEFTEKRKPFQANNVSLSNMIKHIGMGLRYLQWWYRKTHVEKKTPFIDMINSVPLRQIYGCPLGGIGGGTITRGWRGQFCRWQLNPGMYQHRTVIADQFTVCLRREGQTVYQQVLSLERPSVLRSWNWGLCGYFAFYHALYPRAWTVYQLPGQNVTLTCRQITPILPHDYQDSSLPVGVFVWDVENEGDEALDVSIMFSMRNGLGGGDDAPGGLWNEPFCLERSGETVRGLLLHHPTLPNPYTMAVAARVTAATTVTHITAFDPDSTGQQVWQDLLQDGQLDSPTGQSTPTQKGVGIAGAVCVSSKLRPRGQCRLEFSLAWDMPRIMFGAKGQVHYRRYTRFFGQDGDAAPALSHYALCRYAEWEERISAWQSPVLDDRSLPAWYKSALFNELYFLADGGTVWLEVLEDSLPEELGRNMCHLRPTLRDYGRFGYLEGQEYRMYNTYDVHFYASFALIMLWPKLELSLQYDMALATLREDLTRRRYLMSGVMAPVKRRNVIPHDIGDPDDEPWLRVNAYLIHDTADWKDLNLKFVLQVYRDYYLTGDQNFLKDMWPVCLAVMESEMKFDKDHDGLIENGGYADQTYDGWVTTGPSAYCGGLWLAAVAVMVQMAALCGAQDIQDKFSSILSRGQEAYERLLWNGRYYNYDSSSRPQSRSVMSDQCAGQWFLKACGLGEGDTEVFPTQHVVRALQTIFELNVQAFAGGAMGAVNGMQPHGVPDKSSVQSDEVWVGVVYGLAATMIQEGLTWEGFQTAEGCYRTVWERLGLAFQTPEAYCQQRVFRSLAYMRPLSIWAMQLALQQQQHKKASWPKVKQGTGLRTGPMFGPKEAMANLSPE
How it was run: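 Fluorogenic 4-MU-β-glucoside (250 μM) turnover over 20 min at 37 °C, pH 5.5, measured after NaOH/glycine stop (ex 365, em 450 nm). Enzyme source: lysate (0.083 mg/mL) of lentivirally transduced GBA2-HEK293T, GCase blocked by 20 μM azaspiro-octanediol; compound preincubated 5 min; IC50 = 50% inhibition concentration.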

GBA2 [2] = target: T1, GBA2; assay: Binding specificity (selectivity) for GBA2 over other enzymes; type: biochemical; settings: compared to a suitable reference compound, e.g. NB-DNJ (miglustat) or AMP-DNM
Excerpt: In some embodiments, one or more of the compounds according to the invention may specifically bind a GBA2. In alternative embodiments, one or more of the compounds according to the invention may specifically bind the active site of a GBA2. […] In alternative embodiments, one or more of the compounds according to the invention may specifically bind the human non-lysosomal glucosylceramidase (GBA2) over the human lysosomal glucosylceramidase (GCase) and/or the human cytosolic glucosylceramidase (GBA3). In alternative embodiments, one or more of the compounds according to the invention may specifically bind the human non-lysosomal glucosylceramidase (GBA2) over the human glucosylceramide synthase (GCS). In alternative embodiments, one or more of the compounds according to the invention may specifically bind the human non-lysosomal glucosylceramidase (GBA2) over an intestinal alpha-glucosidase, where the intestinal alpha-glucosidase may be a sucrase-isomaltase or a maltase-glucoamylase.

[3] = cellular homogenate of HEK293T cells overexpressing human GBA2, 250 μM 4-methylumbelliferone-β-D glucopyranoside, pH 5.5, 37° C., GCase inhibitor present, read-out: GBA2 IC50

IC50 (GBA2 [1]; [3]) | binding specificity (IC50 or Ki of other molecule / GBA2) (GBA2 [2]) | SMILES | IC50 (GBA2 [1])
< 100 nM | enhanced binding specificity | Cc1ccccc1N1CCC[C@H](CN2C[C@H](O)[C@@H](O)[C@H](O)[C@H]2C)C1 [Example 136, (2R,3R,4R,5S)-2-methyl-1-(((R)-1-(o-tolyl)piperidin-3-yl)methyl)piperidine-3,4,5-triol] | –
< 100 nM | enhanced binding specificity | C[C@@H]1[C@@H](O)[C@H](O)[C@@H](O)CN1CCc1c(F)cc(N2CCCC2)cc1F [Example 56, (2R,3R,4R,5S)-1-(2,6-difluoro-4-(pyrrolidin-1-yl)phenethyl)-2-methylpiperidine-3,4,5-triol] | –
< 100 nM | enhanced binding specificity | C[C@@H]1[C@@H](O)[C@H](O)[C@@H](O)CN1C[C@H]1CCN(c2ncccc2C(F)(F)F)C1 [Example 120, (2R,3R,4R,5S)-2-methyl-1-(((R)-1-(3-(trifluoromethyl)pyridin-2-yl)pyrrolidin-3-yl)methyl)piperidine-3,4,5-triol] | –
< 100 nM | enhanced binding specificity | C[C@@H]1[C@@H](O)[C@H](O)[C@@H](O)CN1C[C@H]1CC[C@@H](C2CC2)CC1 [Example 20, (2R,3R,4R,5S)-1-(((1s,4S)-4-cyclopropylcyclohexyl)methyl)-2-methylpiperidine-3,4,5-triol] | –
< 100 nM | enhanced binding specificity | C[C@@H]1[C@@H](O)[C@H](O)[C@@H](O)CN1CCc1c(F)cc(N2CCCCC2)cc1F [Example 57, (2R,3R,4R,5S)-1-(2,6-difluoro-4-(piperidin-1-yl)phenethyl)-2-methylpiperidine-3,4,5-triol] | –
< 100 nM | enhanced binding specificity | C[C@@H]1[C@@H](O)[C@H](O)[C@@H](O)CN1C[C@H]1CCN(c2cccc(C(F)(F)F)n2)C1 [Example 119, (2R,3R,4R,5S)-2-methyl-1-(((R)-1-(6-(trifluoromethyl)pyridin-2-yl)pyrrolidin-3-yl)methyl)piperidine-3,4,5-triol] | –
< 100 nM | enhanced binding specificity | C[C@@H]1[C@@H](O)[C@H](O)[C@@H](O)CN1CCc1c(F)cc(C2CCOCC2)cc1F [Example 54, (2R,3R,4R,5S)-1-(2,6-difluoro-4-(tetrahydro-2H-pyran-4-yl)phenethyl)-2-methylpiperidine-3,4,5-triol] | –
– | – | CC(C)c1cc(F)c(CCN2C[C@H](O)[C@@H](O)[C@H](O)[C@H]2CF)c(F)c1 [Example 150, (2S,3R,4R,5S)-1-(2,6-difluoro-4-isopropylphenethyl)-2-(fluoromethyl)piperidine-3,4,5-triol] | < 100 nM
< 100 nM | – | C[C@@H]1[C@@H](O)[C@H](O)[C@@H](O)CN1CCCc1ccccc1F [Example 78, (2R,3R,4R,5S)-1-(3-(2-fluorophenyl)propyl)-2-methylpiperidine-3,4,5-triol] | –
< 100 nM | – | C[C@@H]1[C@@H](O)[C@H](O)[C@@H](O)CN1CC1CCc2ccccc2C1 (stereo partly drawn) [Example 27, (2R,3R,4R,5S)-2-methyl-1-((1,2,3,4-tetrahydronaphthalen-2-yl)methyl)piperidine-3,4,5-triol] | –
– | – | O[C@H]1[C@H](O)[C@@H](O)CN(CCc2ccc3c(c2)OCCO3)[C@@H]1CF [Example 153, (2S,3R,4R,5S)-1-(2-(2,3-dihydrobenzo[b][1,4]dioxin-6-yl)ethyl)-2-(fluoromethyl)piperidine-3,4,5-triol] | < 100 nM
1000 to 25000 nM | – | O[C@H]1[C@H](O)[C@@H](O)CN(CCc2ccccc2)[C@@H]1C(F)F [Example 156, (2S,3R,4R,5S)-2-(difluoromethyl)-1-phenethylpiperidine-3,4,5-triol] | –
1000 to 25000 nM | – | C[C@@H]1[C@@H](O)[C@H](O)[C@@H](O)CN1CCc1ccccn1 [Example 76, (2R,3R,4R,5S)-2-methyl-1-(2-(pyridin-2-yl)ethyl)piperidine-3,4,5-triol] | –
100 to 1000 nM | – | C[C@@H]1[C@@H](O)[C@H](O)[C@@H](O)CN1CCC1CCCCC1 [Example 29, (2R,3R,4R,5S)-1-(2-cyclohexylethyl)-2-methylpiperidine-3,4,5-triol] | –
100 to 1000 nM | – | C[C@@H]1[C@@H](O)[C@H](O)[C@@H](O)CN1CC1CCN(C(=O)C2CCCC2)CC1 [Example 100, cyclopentyl(4-(((2R,3R,4R,5S)-3,4,5-trihydroxy-2-methylpiperidin-1-yl)methyl)piperidin-1-yl)methanone] | –
< 100 nM | – | C[C@@H]1[C@@H](O)[C@H](O)[C@@H](O)CN1C[C@H]1CCN(c2cccnc2C(F)(F)F)C1 [Example 126, (2R,3R,4R,5S)-2-methyl-1-(((R)-1-(2-(trifluoromethyl)pyridin-3-yl)pyrrolidin-3-yl)methyl)piperidine-3,4,5-triol] | –
100 to 1000 nM | – | C[C@@H]1[C@@H](O)[C@H](O)[C@@H](O)CN1C[C@H]1CC[C@]2(CC1)COC(C)(C)C2 [Example 26, (2R,3R,4R,5S)-1-(((5S,8s)-3,3-dimethyl-2-oxaspiro[4.5]decan-8-yl)methyl)-2-methylpiperidine-3,4,5-triol] | –
< 100 nM | – | C[C@@H]1[C@@H](O)[C@H](O)[C@@H](O)CN1C[C@H]1CC[C@H](C(C)(C)F)CC1 [Example 14, (2R,3R,4R,5S)-1-(((1r,4R)-4-(2-fluoropropan-2-yl)cyclohexyl)methyl)-2-methylpiperidine-3,4,5-triol] | –

SMILES | IC50 (GBA2 [1]; [3]) | binding specificity (IC50 or Ki of other molecule / GBA2) (GBA2 [2]) | IC50 (GBA2 [1])
CCCCOc1cc(F)c(CCN2C[C@H](O)[C@@H](O)[C@H](O)[C@H]2C)c(F)c1 [Example 59, (2R,3R,4R,5S)-1-(4-butoxy-2,6-difluorophenethyl)-2-methylpiperidine-3,4,5-triol] | – | enhanced binding specificity | < 100 nM
O[C@H]1[C@H](O)[C@@H](O)CN(CCc2cc3c(cc2F)OCO3)[C@@H]1CF [Example 152, (2S,3R,4R,5S)-1-(2-(6-fluorobenzo[d][1,3]dioxol-5-yl)ethyl)-2-(fluoromethyl)piperidine-3,4,5-triol] | – | enhanced binding specificity | < 100 nM
C[C@@H]1[C@@H](O)[C@H](O)[C@@H](O)CN1CCc1c(F)cc(C2CC2)cc1F [Example 53, (2R,3R,4R,5S)-1-(4-cyclopropyl-2,6-difluorophenethyl)-2-methylpiperidine-3,4,5-triol] | – | enhanced binding specificity | < 100 nM
C[C@@H]1[C@@H](O)[C@H](O)[C@@H](O)CN1CCc1ccc2c(c1)OCCO2 [Example 73, (2R,3R,4R,5S)-1-(2-(2,3-dihydrobenzo[b][1,4]dioxin-6-yl)ethyl)-2-methylpiperidine-3,4,5-triol] | – | enhanced binding specificity | < 100 nM
C[C@@H]1[C@@H](O)[C@H](O)[C@@H](O)CN1CCc1cc2c(cc1F)OCO2 [Example 71, (2R,3R,4R,5S)-1-(2-(6-fluorobenzo[d][1,3]dioxol-5-yl)ethyl)-2-methylpiperidine-3,4,5-triol] | – | enhanced binding specificity | < 100 nM
